Results: ChEMBL document CHEMBL1201862, “PubChem BioAssay data set” (2004)
Several values for one entry are separate records, joined by “and”; a condition that tells them apart may be missing. Identical values can stand only once.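 Cultured in 96-well plates, cells were exposed to test compound for 48 hours across five concentrations. GI50 is the concentration that inhibits growth by half.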 Activity calls are given as the source filed them. Cut-off read from the data, not from the text of the source: active = GI50 up to about 1.1 µM and inactive = higher.

Assays:
Assay in all cases: NCI tumour cell line growth inhibition, 48 h
HT-29 = system: HT-29
UACC-62 = system: UACC-62
M14 = system: M14
SK-MEL-5 = system: SK-MEL-5
SNB-78 = system: SNB-78
CCRF-CEM = system: CCRF-CEM
HL-60 = system: HL-60
ACHN = system: ACHN
HOP-92 = system: HOP-92
A549 = system: A549
UO-31 = system: UO-31
DLD-1 = system: DLD-1
M19-MEL = system: M19-MEL
EKVX = system: EKVX
SN12C = system: SN12C
SK-OV-3 = system: SK-OV-3
KM-20L2 = system: KM-20L2
SK-MEL-2 = system: SK-MEL-2
SK-MEL-28 = system: SK-MEL-28
SF-295 = system: SF-295
NCI-H23 = system: NCI-H23
OVCAR-4 = system: OVCAR-4
K562 = system: K562
NCI-H522 = system: NCI-H522
CAKI-1 = system: CAKI-1
RPMI-8226 = system: RPMI-8226
OVCAR-5 = system: OVCAR-5
HCC 2998 = system: HCC 2998
OVCAR-3 = system: OVCAR-3
OVCAR-8 = system: OVCAR-8
786-0 = system: 786-0
TK-10 = system: TK-10
SF-268 = system: SF-268
MOLT-4 = system: MOLT-4
RXF 393 = system: RXF 393
DMS-273 = system: DMS-273
DMS-114 = system: DMS-114
IGROV-1 = system: IGROV-1
UACC-257 = system: UACC-257
NCI-H460 = system: NCI-H460
COLO 205 = system: COLO 205
SW-620 = system: SW-620
LOX IMVI = system: LOX IMVI
SNB-75 = system: SNB-75
SNB-19 = system: SNB-19
HOP-62 = system: HOP-62
A498 = system: A498
Malme-3M = system: Malme-3M
NCI-H226 = system: NCI-H226
SF-539 = system: SF-539
HCT-15 = system: HCT-15
KM12 = system: KM12
LXFL 529 = system: LXFL 529
XF498 = system: XF498
U-251 = system: U-251
HOP-18 = system: HOP-18
HCT-116 = system: HCT-116

Structure (SMILES): CN1c2ccccc2N(C(=O)c2ccc([N+](=O)[O-])cc2)C(CC(=O)O)c2cccn21 (stereo not drawn)
- GI50 (HT-29): > 100 µM (inactive)
- GI50 (UACC-62): > 100 µM (inactive)
- GI50 (M14): > 100 µM (inactive)
- GI50 (SK-MEL-5): > 100 µM (inactive)
- GI50 (SNB-78): > 100 µM (inactive)
- GI50 (CCRF-CEM): > 100 µM (inactive)
- GI50 (HL-60): > 100 µM (inactive)
- GI50 (ACHN): > 100 µM (inactive)
- GI50 (HOP-92): > 100 µM (inactive)
- GI50 (A549): > 100 µM (inactive)
- GI50 (UO-31): > 100 µM (inactive)
- GI50 (DLD-1): > 100 µM (inactive)
- GI50 (M19-MEL): > 100 µM (inactive)
- GI50 (EKVX): > 100 µM (inactive)
- GI50 (SN12C): > 100 µM (inactive)
- GI50 (SK-OV-3): > 100 µM (inactive)
- GI50 (KM-20L2): > 100 µM (inactive)
- GI50 (SK-MEL-2): > 100 µM (inactive)
- GI50 (SK-MEL-28): > 100 µM (inactive)
- GI50 (SF-295): > 100 µM (inactive)
- GI50 (NCI-H23): > 100 µM (inactive)
- GI50 (OVCAR-4): > 100 µM (inactive)
- GI50 (K562): > 100 µM (inactive)
- GI50 (NCI-H522): > 100 µM (inactive)
- GI50 (CAKI-1): > 100 µM (inactive)
- GI50 (RPMI-8226): > 100 µM (inactive)
- GI50 (OVCAR-5): > 100 µM (inactive)
- GI50 (HCC 2998): > 100 µM (inactive)
- GI50 (OVCAR-3): > 100 µM (inactive)
- GI50 (OVCAR-8): > 100 µM (inactive)
- GI50 (786-0): > 100 µM (inactive)
- GI50 (TK-10): > 100 µM (inactive)
- GI50 (SF-268): > 100 µM (inactive)
- GI50 (MOLT-4): > 100 µM (inactive)
- GI50 (RXF 393): > 100 µM (inactive)
- GI50 (DMS-273): > 100 µM (inactive)
- GI50 (DMS-114): > 100 µM (inactive)
- GI50 (IGROV-1): > 100 µM (inactive)
- GI50 (UACC-257): > 100 µM (inactive)
- GI50 (NCI-H460): > 100 µM (inactive)
- GI50 (COLO 205): > 100 µM (inactive)
- GI50 (SW-620): > 100 µM (inactive)
- GI50 (LOX IMVI): > 100 µM (inactive)
- GI50 (SNB-75): > 100 µM (inactive)
- GI50 (SNB-19): > 100 µM (inactive)
- GI50 (HOP-62): > 100 µM (inactive)
- GI50 (A498): > 100 µM (inactive)
- GI50 (Malme-3M): > 100 µM (inactive)
- GI50 (NCI-H226): > 100 µM (inactive)
- GI50 (SF-539): > 100 µM (inactive)
- GI50 (HCT-15): > 100 µM
- GI50 (KM12): > 100 µM (inactive)
- GI50 (LXFL 529): > 100 µM (inactive)
- GI50 (XF498): > 100 µM (inactive)

Structure (SMILES): COc1c(O)c2c3c(c(C)cc(O)c3c1O)C(=O)C(O)(C(C)(C)C(C)=O)C2=O (stereo not drawn)
- GI50 (U-251): > 100 µM (inactive)
- GI50 (HT-29): > 100 µM (inactive)
- GI50 (M14): > 100 µM (inactive)
- GI50 (SK-MEL-5): 77.1 µM (inactive)
- GI50 (SNB-78): 71.8 µM (inactive)
- GI50 (CCRF-CEM): 61.9 µM (inactive) and 57 µM (inactive)
- GI50 (HL-60): 51.4 µM (inactive) and 50.9 µM (inactive)
- GI50 (ACHN): > 100 µM (inactive)
- GI50 (HOP-92): > 100 µM (inactive)
- GI50 (A549): > 100 µM (inactive)
- GI50 (UO-31): > 100 µM (inactive)
- GI50 (DLD-1): > 100 µM (inactive)
- GI50 (M19-MEL): 14.7 µM (inactive) and 18.4 µM (inactive)
- GI50 (SN12C): > 100 µM (inactive) and 82.4 µM (inactive)
- GI50 (SK-OV-3): > 100 µM (inactive)
- GI50 (KM-20L2): > 100 µM (inactive)
- GI50 (SK-MEL-2): > 100 µM (inactive)
- GI50 (SK-MEL-28): > 100 µM (inactive)
- GI50 (NCI-H23): > 100 µM (inactive)
- GI50 (OVCAR-4): > 100 µM (inactive)
- GI50 (CAKI-1): > 100 µM (inactive)
- GI50 (RPMI-8226): > 100 µM (inactive) and 82.2 µM (inactive)
- GI50 (OVCAR-5): > 100 µM (inactive)
- GI50 (OVCAR-3): > 100 µM (inactive)
- GI50 (OVCAR-8): > 100 µM (inactive)
- GI50 (786-0): > 100 µM (inactive)
- GI50 (TK-10): > 100 µM (inactive)
- GI50 (HOP-18): > 100 µM (inactive)
- GI50 (SF-268): > 100 µM (inactive)
- GI50 (MOLT-4): > 100 µM (inactive)
- GI50 (RXF 393): > 100 µM (inactive)
- GI50 (DMS-273): > 100 µM (inactive)
- GI50 (HCT-116): > 100 µM (inactive)
- GI50 (IGROV-1): > 100 µM (inactive)
- GI50 (UACC-257): > 100 µM (inactive)
- GI50 (NCI-H460): > 100 µM (inactive)
- GI50 (COLO 205): > 100 µM (inactive)
- GI50 (SW-620): > 100 µM (inactive)
- GI50 (SNB-75): > 100 µM (inactive) and 61 µM (inactive)
- GI50 (SNB-19): > 100 µM (inactive)
- GI50 (HOP-62): > 100 µM (inactive)
- GI50 (Malme-3M): > 100 µM (inactive)
- GI50 (NCI-H226): 19.3 µM (inactive)
- GI50 (SF-539): > 100 µM (inactive)
- GI50 (HCT-15): > 100 µM
- GI50 (KM12): > 100 µM (inactive)
- GI50 (LXFL 529): > 100 µM (inactive)
- GI50 (XF498): > 100 µM (inactive)

Structure (SMILES): Cc1ccc(/C=C2\CCCC\C2=N\O)cc1
- GI50 (U-251): 60.1 µM (inactive)
- GI50 (HT-29): 51.8 µM (inactive)
- GI50 (UACC-62): > 100 µM (inactive)
- GI50 (M14): > 100 µM (inactive)
- GI50 (SK-MEL-5): 35.1 µM (inactive)
- GI50 (SNB-78): 30.3 µM (inactive)
- GI50 (CCRF-CEM): 45.4 µM (inactive)
- GI50 (HL-60): 12.9 µM (inactive)
- GI50 (ACHN): 37.8 µM (inactive)
- GI50 (A549): 71.8 µM (inactive)
- GI50 (UO-31): 26.9 µM (inactive)
- GI50 (DLD-1): 41.9 µM (inactive)
- GI50 (M19-MEL): 87.7 µM (inactive)
- GI50 (EKVX): 80.2 µM (inactive)
- GI50 (SN12C): 47 µM (inactive)
- GI50 (SK-OV-3): > 100 µM (inactive)
- GI50 (KM-20L2): 75.9 µM (inactive)
- GI50 (SK-MEL-28): > 100 µM (inactive)
- GI50 (SF-295): 74.3 µM (inactive)
- GI50 (NCI-H23): 47.3 µM (inactive)
- GI50 (OVCAR-4): 38.8 µM (inactive)
- GI50 (K562): 41 µM (inactive)
- GI50 (CAKI-1): 56.6 µM (inactive)
- GI50 (HCC 2998): 19.9 µM (inactive)
- GI50 (OVCAR-3): > 100 µM (inactive)
- GI50 (OVCAR-8): 59.3 µM (inactive)
- GI50 (786-0): 48.5 µM (inactive)
- GI50 (TK-10): > 100 µM (inactive)
- GI50 (HOP-18): 59.6 µM (inactive)
- GI50 (SF-268): 51.2 µM (inactive)
- GI50 (MOLT-4): > 10 µM (inactive)
- GI50 (DMS-273): 56.8 µM (inactive)
- GI50 (HCT-116): 45.9 µM (inactive)
- GI50 (IGROV-1): 74.5 µM (inactive)
- GI50 (NCI-H460): 54 µM (inactive)
- GI50 (COLO 205): 81.5 µM (inactive)
- GI50 (SW-620): > 100 µM (inactive)
- GI50 (LOX IMVI): 58.7 µM (inactive)
- GI50 (SNB-75): 26.2 µM (inactive)
- GI50 (SNB-19): 53 µM (inactive)
- GI50 (HOP-62): > 100 µM (inactive)
- GI50 (A498): 37.7 µM (inactive)
- GI50 (SF-539): 88.3 µM (inactive)
- GI50 (HCT-15): 44.6 µM
- GI50 (LXFL 529): 46.3 µM (inactive)
- GI50 (XF498): 31.3 µM (inactive)
